Results from paper PMC10508264, “Exploring the antioxidant, antimicrobial, cytotoxic and biothermodynamic properties of novel morpholine derivative bioactive Mn(II), Co(II) and Ni(II) complexes – combined experimental and theoretical measurements towards DNA/BSA/SARS-CoV-2 3CL^Pro” (RSC Medicinal Chemistry, 2023).

Legend:
[1] = system: A549; assay: MTT cell viability assay, A549; type: cell-based, human; settings: A549, 72 h of exposure
[2] = molecular target: BSA (Bos taurus, UniProt P02769); assay: BSA fluorescence quenching titration; type: binding, bovine; settings: for Gibb's free energy change (SV method II), BSA: T = 298 K; for Kq (SV method I), BSA: τ0 = 10^−8 s; for P, ratio of fluorescence quantum efficiency, BSA: F/F0 vs 1/[BSA]
Method: Titrations were performed for all tested compounds (1–200 μM) with pre-incubated EB-bound DNA and the intensity variations between 510 nm and 610 nm were carefully monitored in the presence and absence of DNA (200 μM) during the initial emission and excitation by EB.[31]
Fluorescence emission spectral titration is an efficient approach to evaluating the binding properties of DNA/BSA biomolecules. In general, the fluorescence of EB is quite weak in aqueous solution, but when it is bound to DNA, the fluorescence intensity rises. However, it is a well-known imperative intercalator and is more supportive in distinguishing the binding strength of non-fluorescence test substances. Also, the fluorescence emission spectra of the EB–DNA adduct were examined at 610 nm in the absence and presence of rising quantities of each test compound. When the complex concentration (0–240 μM) rises, the fluorescence intensity of the EB-bound DNA complex diminishes owing to the displacement of EB from CT-DNA. A notable reduction in the fluorescence emission intensity at 610 nm is observed (Fig. S26 ^† and Table 4). The photoelectron shift from DNA's guanine base to the excited states may be the cause of the frequency quenching in the emission of the test substance by DNA. […] Therefore, the competitive binding experiment can make use of EB as a fluorescent probe. […] This is further evidence that complexes (1–3) strongly bind intercalatively with DNA. The observed results agree well with the data from electronic absorption spectral measurements. Additionally, the experiment was extended to examine the binding properties between the test substance and BSA. BSA mostly contains three amino acid residues (tyrosine, tryptophan, and phenylalanine), which give it its inherent fluorescence. […] These two residues also have minimal quenching effects. Tryptophan in BSA fluoresces mostly because of a residue that is trapped inside a hydrophobic cavity. Therefore, it is crucial to model potential binding interactions with the metal complexes. […] The fluorescence intensity also reduces while the test substances (1–3) are steadily blended with the BSA solution, proving that complexes (1–3) interact with BSA via altering the protein's secondary structure, which also leads to an alteration in the tryptophan environment of BSA (Fig. S27 ^†). Furthermore, BSA structural similarities share 76% sequence identity with human serum albumin (HSA), the most prevalent protein in blood plasma that transports ions and proteins to cells and tissues. HSA is able to readily crystallize under the trivalent cations, but BSA has no ready crystallizing property. However, they consist of parallel physicochemical properties to each other.[74,75] Additionally, the Stern–Volmer eqn (12) and (13) were employed to analyze the data (Fig. S28 ^† and Table 4). Additionally, the kq values for DNA and BSA binding were acquired in the range of 1.1636–2.8863 × 10^12 and 2.6390–7.0774 × 10^12 mol^−1 s^−1, respectively. They are also much greater than the collision quenching constant value (2.0 × 10^10 mol^−1 s^−1). Therefore, it is assumed that the static quenching process was brought on by adduct construction between the test compounds and BSA rather than a dynamic collision. However, fluorescence spectroscopy is generally plagued by the inner filter effect (IFE), disturbing spectral analysis. The energizing ray is attenuated due to the highly concentrated solution sample. As a result, strong fluorescence is only seen on surfaces facing the excitation beam.

[3] = system: Bacillus cereu; assay: Agar disc diffusion, strain G; type: cell-based; set-up: Inhibition%: concentration or dose not given beside the values; settings: for Diameter of clear zone inhibition: control 6 mm
[4] = system: Shigella flexneri; assay: Agar disc diffusion, strain E; type: cell-based; set-up: Inhibition%: concentration or dose not given beside the values; settings: for Diameter of clear zone inhibition: control 6 mm
[5] = Superoxide scavenging assay; settings: for % Inhibition, superoxide: 590 nm; for IC50: read-out: IC50, superoxide

Structure (SMILES): [Mn+2].[O-]c1ccccc1N=Cc1ccc(N2CCOCC2)cc1.[O-]c1ccccc1N=Cc1ccc(N2CCOCC2)cc1.c1ccc(-c2ccccn2)nc1 [(1)]
- IC50 [1]: 37.6 ± 1.9 µM
- KSV (SV method I), BSA [2]: 46510 M⁻¹
- Kass (SV method II), BSA [2]: 20050 M⁻¹
- n, number of binding sites (SV method II), BSA [2]: 0.954
- Gibb's free energy change (SV method II), BSA [2]: -24.5 kJ/M
- Kq (SV method I), BSA [2]: 4.651e+12 M⁻¹ s⁻¹
- P, ratio of fluorescence quantum efficiency, BSA [2]: 0.287
- Inhibition% [3]: 57%
- Diameter of clear zone inhibition [3]: 14 mm
- Inhibition% [4]: 40%
- Diameter of clear zone inhibition [4]: 10 mm
- % Inhibition, superoxide ([5]; 40 µM): 06.85%
- % Inhibition, superoxide ([5]; 80 µM): 13.32%
- % Inhibition, superoxide ([5]; 120 µM): 22.56%
- % Inhibition, superoxide ([5]; 160 µM): 36.63%
- % Inhibition, superoxide ([5]; 200 µM): 45.42%
- % Inhibition, superoxide ([5]; 240 µM): 54.12%

Structure (SMILES): [Co+2].[O-]c1ccccc1N=Cc1ccc(N2CCOCC2)cc1.[O-]c1ccccc1N=Cc1ccc(N2CCOCC2)cc1.c1ccc(-c2ccccn2)nc1 [(2)]
- IC50 [1]: 34.2 ± 1.7 µM
- KSV (SV method I), BSA [2]: 70740 M⁻¹
- Kass (SV method II), BSA [2]: 54550 M⁻¹
- n, number of binding sites (SV method II), BSA [2]: 1.018
- Gibb's free energy change (SV method II), BSA [2]: -27.0 kJ/M
- Kq (SV method I), BSA [2]: 7.074e+12 M⁻¹ s⁻¹
- P, ratio of fluorescence quantum efficiency, BSA [2]: 0.385
- Inhibition% [3]: 54%
- Diameter of clear zone inhibition [3]: 13 mm
- Inhibition% [4]: 33%
- Diameter of clear zone inhibition [4]: 09 mm
- % Inhibition, superoxide ([5]; 40 µM): 07.02%
- % Inhibition, superoxide ([5]; 80 µM): 11.73%
- % Inhibition, superoxide ([5]; 120 µM): 25.81%
- % Inhibition, superoxide ([5]; 160 µM): 43.12%
- % Inhibition, superoxide ([5]; 200 µM): 54.42%
- % Inhibition, superoxide ([5]; 240 µM): 62.24%
- IC50 [5]: 200 µM

Structure (SMILES): [Ni+2].[O-]c1ccccc1N=Cc1ccc(N2CCOCC2)cc1.[O-]c1ccccc1N=Cc1ccc(N2CCOCC2)cc1.c1ccc(-c2ccccn2)nc1 [(3)]
- IC50 [1]: 33.5 ± 1.7 µM
- KSV (SV method I), BSA [2]: 48060 M⁻¹
- Kass (SV method II), BSA [2]: 52920 M⁻¹
- n, number of binding sites (SV method II), BSA [2]: 1.051
- Gibb's free energy change (SV method II), BSA [2]: -26.9 kJ/M
- Kq (SV method I), BSA [2]: 4.8055e+12 M⁻¹ s⁻¹
- P, ratio of fluorescence quantum efficiency, BSA [2]: 0.348
- Inhibition% [3]: 54%
- Diameter of clear zone inhibition [3]: 13 mm
- Inhibition% [4]: 54%
- Diameter of clear zone inhibition [4]: 13 mm
- % Inhibition, superoxide ([5]; 40 µM): 06.27%
- % Inhibition, superoxide ([5]; 80 µM): 12.17%
- % Inhibition, superoxide ([5]; 120 µM): 24.31%
- % Inhibition, superoxide ([5]; 160 µM): 40.01%
- % Inhibition, superoxide ([5]; 200 µM): 50.78%
- % Inhibition, superoxide ([5]; 240 µM): 58.83%
- IC50 [5]: 200 µM

Structure (SMILES): Oc1ccccc1N=Cc1ccc(N2CCOCC2)cc1 [(HL), 2-(4-morpholinobenzylideneamino)phenol]
- IC50 ([1]; Homo sapiens): 126 ± 6.3 µM
- KSV (SV method I), BSA [2]: 26390 M⁻¹
- Kass (SV method II), BSA [2]: 10620 M⁻¹
- n, number of binding sites (SV method II), BSA [2]: 0.926
- Gibb's free energy change (SV method II), BSA [2]: -23.0 kJ/M
- Kq (SV method I), BSA [2]: 2.639e+12 M⁻¹ s⁻¹
- P, ratio of fluorescence quantum efficiency, BSA [2]: 0.464
- Inhibition% [3]: 33%
- Diameter of clear zone inhibition [3]: 09 mm
- Inhibition% [4]: 57%
- Diameter of clear zone inhibition [4]: 14 mm
- % Inhibition, superoxide ([5]; 40 µM): 05.23%
- % Inhibition, superoxide ([5]; 80 µM): 10.74%
- % Inhibition, superoxide ([5]; 120 µM): 18.85%
- % Inhibition, superoxide ([5]; 160 µM): 33.55%
- % Inhibition, superoxide ([5]; 200 µM): 40.91%
- % Inhibition, superoxide ([5]; 240 µM): 50.42%
